In patent US5283254A, “2-(imidazol-1-yl)-2-benzylethyldiene-aminoxyalkanoic acid derivatives” (Farmitalia Carlo Erba S.r.l., priority 1991, dated 1994):

Experiments:
TxA2 Synthase [1] = target: T1, TxA2 Synthase (Rattus norvegicus, UniProt P49430); experiment: Inhibition of TxA2 synthase activity: TxB2 production in rat whole blood during clotting (serum, RIA), in vitro; format: cell-based; details: for inhibitory activity on TxA2 synthesis (in words): rat
T1 construct: TxB2 generated in whole blood during clotting; endogenous in cells; host or cells: rat whole blood (blood cells, mainly platelets), clotted 1 h at 37 °C
T1 sequence (P49430 1-533): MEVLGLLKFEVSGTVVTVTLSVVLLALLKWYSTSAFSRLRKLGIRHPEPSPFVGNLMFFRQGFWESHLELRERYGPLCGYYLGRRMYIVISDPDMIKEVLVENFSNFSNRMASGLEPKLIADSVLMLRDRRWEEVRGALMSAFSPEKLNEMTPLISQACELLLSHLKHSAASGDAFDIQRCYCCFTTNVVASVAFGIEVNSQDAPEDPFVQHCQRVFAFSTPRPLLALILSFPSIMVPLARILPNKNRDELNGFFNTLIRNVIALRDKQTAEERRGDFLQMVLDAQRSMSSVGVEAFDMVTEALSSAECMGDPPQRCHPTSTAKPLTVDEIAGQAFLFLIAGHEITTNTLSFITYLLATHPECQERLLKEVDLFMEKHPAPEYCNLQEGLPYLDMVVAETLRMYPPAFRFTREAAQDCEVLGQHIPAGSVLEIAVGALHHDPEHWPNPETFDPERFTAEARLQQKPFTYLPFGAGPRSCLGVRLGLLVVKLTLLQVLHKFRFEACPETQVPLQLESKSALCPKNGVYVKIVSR
Description: The compounds of formula (I) were for example tested for their ability to inhibit TxA2 Synthase activity (as reflected by TxB2 generated in whole blood during clotting or in isolated glomeruli) in vitro in the rat.
The in vitro experiments were carried out as follows:
The effect of the compounds on TxA2 synthesis was evaluated in serum.
Blood was withdrawn from the abdominal aorta of the animals under light ether anesthesia.
Samples were then allowed to clot for 1 h at 37° C., centrifuged at 3000 rpm for 10 min, serum collected and stored at -20° C. until assayed. TxB2 levels were determined by RIA according to previously described procedures [Patrono et al.--Thromb. Res. 17, 3/4, 317, 1980] using highly specific antibody.

TxA2 receptor = target: T2, TxA2 receptor (Homo sapiens, UniProt P21731); experiment: [3H]-SQ 29,548 binding displacement in washed human platelets (TxA2 antagonism)
T2 construct: endogenous in cells; host or cells: washed human platelets from healthy volunteers
T2 sequence (P21731 1-343): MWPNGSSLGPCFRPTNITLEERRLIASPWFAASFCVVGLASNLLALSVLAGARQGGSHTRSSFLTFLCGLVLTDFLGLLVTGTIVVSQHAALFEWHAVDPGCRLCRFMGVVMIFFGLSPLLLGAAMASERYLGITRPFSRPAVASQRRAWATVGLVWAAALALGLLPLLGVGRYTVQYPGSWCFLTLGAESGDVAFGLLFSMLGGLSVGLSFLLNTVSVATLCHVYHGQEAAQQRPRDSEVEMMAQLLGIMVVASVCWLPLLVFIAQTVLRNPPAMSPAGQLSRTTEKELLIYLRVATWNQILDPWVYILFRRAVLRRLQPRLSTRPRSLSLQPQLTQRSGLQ
Description: Platelet rich plasma (PRP), obtained by centrifugation of the blood at 200×g for 20 min, is washed twice (1000×g for 10 min). […] For displacement experiments various concentrations (10^-9 -10^-4 M) of competing ligands were added and incubated for 30 min at 25° C.
The binding data were analysed by computerized non-linear curve fitting using the Ligand program and expressed as IC50.

TxA2 synthase [2] = details: known compound; cited from earlier work

Question: With `O=C(O)CCCCO/N=C(\c1ccccc1)C(Cc1ccc(F)cc1)n1ccnc1` (racemic) [FCE 27317, (±)-(E)-5-[1-phenyl-2-(imidazol-1-yl)-2-(4-fluorobenzyl)ethylidene]aminoxypentanoic acid] as the molecule, how does the “inhibitory activity on TxA2 synthesis (in words)” value (TxA2 Synthase [1]) read?
Answer: marked inhibitory activity on TxA2 synthesis significantly more potent than that of reference compounds Dazoxiben and ASA

Question: What about the IC50 (TxA2 Synthase [1]; rat whole blood, n = 8 replicates, limits for p = 0.95 printed on following line, clotting 1 h at 37° C.) of the same molecule?
Answer: 390 nM

Question: What about the “inhibitory activity on TxA2 synthesis (in words)” value (TxA2 Synthase [1]; listed as FCE 27109) of the same molecule?
Answer: active as TxA2 synthase inhibitor

Question: And the “affinity for the receptor / TxA2 antagonism (in words)” value (TxA2 receptor)?
Answer: good affinity for the receptor better than that showed by the known compound Sulotroban (BM 13177)

Question: And the IC50 (TxA2 receptor; 5 nM [3H]-SQ 29,548, 30 min at 25° C., pH 7.4)?
Answer: 38.7 nM

Question: Which “TxA2 synthase inhibitory activity (in words)” value (TxA2 synthase [2]) does the source give for `O=C(O)COc1ccc(CCNS(=O)(=O)c2ccccc2)cc1` [BM 13177] here?
Answer: devoid of TxA2 synthase inhibitory activity
